Measurements from patent publication US20250101061A1, “UPREGULATION OF FERRITIN HEAVY CHAIN 1 EXPRESSION” (HBC Immunology Inc., priority 2022, published 2025).
Where “and” joins values, the source holds several entries; their conditions need not be identical. Equal values may be shown once.

Experiments:
FTH1 = FTH1 gene expression in human skeletal muscle cells (HSkMC) by qRT-PCR; format: cell-based; settings: for FTH1 Fold Change, Average / FTH1 Fold Change (individual runs): SPH 100 μM or synthetic oligopeptide 10 μM, about 12 hours; for FTH1 Fold Change (individual runs): triplicate runs; for FTH1 Fold Change at 0.625 μM / FTH1 Fold Change at 1.25 μM / FTH1 Fold Change at 2.5 μM / FTH1 Fold Change at 5 μM / FTH1 Fold Change at 10 μM: average of triplicate (SD ≤ 0.3)
Experimental: A cell line derived from human skeletal muscle was selected to assess the effect of SPH and oligopeptides on gene expression. HSkMC (PCS-950-010) obtained from ATCC (Manassas, VA) were propagated in Mesenchymal Stem Cell Basal Medium (ATCC) reduced serum medium supplemented with Primary Skeletal Cell Muscle Growth Kit (ATCC) that contains L-Glutamine (10 mM), Dexamethasone ([…]), rh epidermal growth factor (5 ng/ml), rh FGF-b (5 ng/ml), rh Insulin (25 μg/mL), and fetal bovine serum (4%), on 100 mm cell culture dishes. For this assay, the HSkMC cells were seeded in 24 well plates at a cell density of 1×10^4 cells/cm^2 and maintained at 37° C. in a humidified 5% CO2 atmosphere. […]
Total RNA was extracted using the UPzol reagent for the cell pellets, followed by a DNAse treatment (DNAse TURBO), using the manufacturer's protocols. Complementary DNA (cDNA) was synthesized with the High Capacity cDNA Reverse Transcription Kit (Applied Biosystems) using random hexamers. Gene expression levels were measured by qRT-PCR.
1 μl of cDNA corresponding to 50 ng of reverse transcribed RNA was amplified by Qpcr (QuantStudio™ 6 Flex Real-Time PCR System), using the TaqMan™ Universal PCR Master Mix (Catalog No. 4304437) and a TaqMan™ assay (Roche Molecular Systems, Inc., Pleasanton, CA).
FTH1 gene expression was estimated relative to expression of the housekeeping gene, beta-actin (ACTB), following the standard formula: […]
2-ΔCt. TaqMan™ probe IDs used were: (i) FTH1, Hs01694011_s1; and (ii) ACTB, Hs01060665_g1. All experiments were run in triplicate.

[1] = tested on: Immortalized human astrocytes (P10251-IM); experiment: Protection of human astrocytes from hemin-induced injury (LDH release assay); format: cell-based; settings: 24 hr pre-treatment: SPH 160 μM, oligopeptide 10 μM, collagen control 160 μM; then 30 μM hemin 6 hrs; scaled to 0.1% Triton X-100 lysis
Experimental: Immortalized human astrocytes (P10251-IM) were obtained from Innoprot, Spain and prepared under conditions recommended by the supplier. At 90% confluency, the P10251-IM cells were rinsed with 8 ml of DPBS and 2 ml of the T/E Solution (prepared as per Innoprot procedure), then added into an […] and gently rocked so that the P10251-IM cells would be completely covered. The flask was subsequently incubated at 37° C. for 2 minutes. Then 5 ml of fetal bovine serum (FBS) and the T/E solution from the flask were added into a 50 ml conical centrifuge tube. The flask was incubated for an additional 2 minutes, and the P10251-IM cells dislodged from the surface by gentle tapping. The P10251-IM cells were then transferred to the 50 ml conical centrifuge tube with 5 ml of TNS solution. The tube was centrifuged at 1000 rpm for 5 minutes. Then the P10251-IM cells were resuspended in the culture medium, counted, and plated in a poly-L-lysine-coated culture plate at 1×10^4 cell density. Cells were tested after they were incubated for 21 days in vitro.
Confluent P10251-IM cell cultures were washed and then pre-treated with medium alone, or medium supplemented with SPH (160 μM) or an oligopeptide (10 μM) for 24 hr at 37° C. Commercial collagen peptide (Vital Protein) at 160 μM concentration and sterile water were used as negative controls. The P10251-IM cells were subsequently treated with 30 μM hemin in serum-free medium consisting of MEM with 10 mM glucose (MEM10) for 6 hrs.
P10251-IM astrocyte cultures that were […] with 30 μM hemin sustained widespread cell injury. Cell viability was quantified using the lactate dehydrogenase (LDH) release assay as previously described (Chen and Regan, Curr Neurovasc Res, 2:189-196, 2005). Briefly, quantification of the protective effects of SPH and oligopeptides were assessed by determining the mean percentage LDH released, scaled to the complete lysis control culture which was treated with 0.1% Triton X-100 (considered to release 100% of culture LDH).

Substance | FTH1 Fold Change, Average (FTH1) [fold] | FTH1 Fold Change (individual runs) (FTH1) | FTH1 Fold Change at 0.625 μM (FTH1) [fold] | FTH1 Fold Change at 1.25 μM (FTH1) [fold] | FTH1 Fold Change at 2.5 μM (FTH1) [fold] | FTH1 Fold Change at 5 μM (FTH1) [fold] | FTH1 Fold Change at 10 μM (FTH1) [fold] | % LDH Release (individual runs) [1] | % LDH Release, Average [1] [%]
KEEDEESGE [FT-003] | 1.1 | 1.1 fold and 1.0 fold and 1.3 fold | – | – | – | – | – | – | –
KPREESGE [FT-004] | 2.1 | 2.1 fold and 2.2 fold and 1.9 fold | 1.1 | 1.1 | 1.1 | 1.3 | 2.1 | – | –
LDEESGEP [FT-005] | 1.8 | 1.7 fold and 1.8 fold (2×) | – | – | – | – | – | – | –
REESGE [FT-001] | 1.7 | 1.6 fold and 1.8 fold (2×) | – | – | – | – | – | – | –
REESGEP [FT-002] | 2.2 | 2.1 fold and 2.0 fold and 2.5 fold | 1.0 | 1.0 | 1.1 | 1.4 | 2.2 | – | –
Triton X-100 [0.1% Triton X-100, reference compound] | – | – | – | – | – | – | – | 100% (2×) and 99% | 100
